Drawing on US8759334B2, “Compounds useful for the treatment of metabolic and inflammatory diseases” (Galapagos NV, priority 2011, dated 2014), this text covers IC50 and EC50 for twelve compounds.

In test [1] the target is T1, GPR43 (Homo sapiens, UniProt O15552).
T1 construct: expressed in transfected cells
T1 sequence (O15552 1-330): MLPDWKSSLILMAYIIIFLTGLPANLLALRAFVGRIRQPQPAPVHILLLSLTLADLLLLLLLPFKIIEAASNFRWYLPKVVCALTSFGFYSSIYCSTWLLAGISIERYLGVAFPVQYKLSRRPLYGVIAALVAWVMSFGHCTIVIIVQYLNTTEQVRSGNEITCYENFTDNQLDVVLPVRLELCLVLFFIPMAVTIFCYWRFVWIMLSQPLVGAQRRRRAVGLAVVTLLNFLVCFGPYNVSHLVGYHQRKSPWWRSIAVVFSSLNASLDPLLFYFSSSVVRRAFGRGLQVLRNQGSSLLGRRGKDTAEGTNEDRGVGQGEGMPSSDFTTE
Put plainly: [35S]GTPγS binding assay. It counts as biochemical. To be noted: membranes from stable cell line over expressing GPR43; sodium acetate at EC80. How it is done: The assay was performed in a 96 well plate where the following reagents were added. […] In a last step, 30 μL of a mixture consisting of membranes-GTPγS-SpA beads was added (mixture consists of 10 μg/well membranes derived from stable cell line over expressing GPR43 (membranes were pre-incubated with 3 μM GDP for 15 minutes at 4° C.), 0.1 nM [35S]GTPγS (Perkin Elmer, NEG030) and 0.5 mg/well PVT-WGA SpA beads (perkin Elmer, RPNQ0001)). […] Reactions were incubated for 240 minutes at room temperature followed by centrifugation at 2000 rpm for 15 minutes. Plates were read on a Topcount immediately after centrifugation (readout time, 1 minute/well).

The target of test [2] is T1, GPR43. Put plainly: Calcium mobilization assay with probenecid. It counts as cell-based. To be noted: GPR43 stably expressing cells; triggered with sodium acetate at EC80; 2.5 mM probenecid; read-out: GPR43 assay with probenicid IC50. Summed up: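 […] being added at rising concentrations to a GPR43 stable line. Before this, cells were dye-loaded (Calcium 4 with 2.5 mM probenecid) for 2 h at 37 °C after overnight plating.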

In the next test the test system is human neutrophils. Nature of the test: Neutrophil migration assay. It counts as cell-based. To be noted: neutrophils from human buffy coat, migration towards sodium acetate, read-out: human neutrophil migration inhibition EC50. The method, then:
G Protein-Coupled Receptor 43 (GPR43) was described as an essential player in the process of neutrophil recruitment during intestinal inflammation.
The effect of agonists or antagonists for GPR43 can therefore be assayed in a neutrophil migration test. In the neutrophil migration assay, neutrophils, isolated from buffy coats from human volunteers, are treated with a compound for 30 minutes. Subsequently, the neutrophils are transferred to the upper wells of a Corning HTS transwell 96 permeable support system, of which the lower wells are filled with a sodium acetate solution.
The ACD buffer consists of 140 mM citric acid, 200 mM sodium citrate and 220 mM dextrose. The 6% dextran/0.9% NaCl solution consists of 15 g dextran T2000 and 2.25 g NaCl dissolved in 250 mL H2O.
A human buffy coat is diluted with an equal volume of ice cold DPBS. 20 mL of the diluted buffy coat is gently mixed with 4 mL of ACD buffer. Then, 12 mL of the 6% dextran/0.9% NaCl solution is added to the mixture and the samples are inverted gently up to 20 times. The total volume is transferred to a new recipient and incubated at room temperature for 1 h for complete separation of the two phases to occur. The yellowish supernatant is then transferred to a clean centrifugation tube and centrifuged for 12 minutes at 1300 rpm and 4° C. After centrifugation, the supernatant is discarded and the remaining cell pellet is rapidly resuspended in 12 mL of ice-cold H2O for red blood cell lysis to occur. After 20 seconds, 4 mL of ice-cold 0.6 M KCl is added. Samples are mixed carefully and centrifuged for 6 minutes at 1300 rpm, 4° C. The supernatant is discarded and the red blood cell lysis procedure is repeated one more time. […] After centrifugation for 12 min at 1300 rpm, 4° C., the supernatant is removed and the cell pellet, containing the neutrophils, is resuspended in 25 mL chemotaxis buffer.
A cell suspension of 8.9×10^6 cells per milliliter is prepared. 20 μL of compound solution in chemotaxis buffer is added to 180 μl cell suspension. The mixture is incubated at 37° C. for 30 minutes with Intermediate resuspension of the cells after 15 minutes. […] The receiver well of the transwell system is then filled with 200 μL chemotaxis buffer containing compound and chemotactic agent (sodium acetate). After incubation at 37° C. in 5% CO2 for 1 h, the upper plate of the transwell system is removed and the cell suspension in the receiver plate is transferred to a 96-well V-bottom plate. 50 μL of DPBS is added to the receiver plate to prevent remaining cells from drying out. The V-bottom plate is centrifuged for 6 minutes at 1500 rpm. The supernatant is removed and the cells are resuspended in 50 μL DPBS. The cells are then transferred back to the receiver plate of the transwell system. […] The plate is incubated for 10 minutes in the dark, while shaking. 170 μL of cell lysate is then transferred to a white 96-well plate and luminescence is measured. The detected luminescent signal is considered as linearly related to the number of migrated cells.

Test [3] has as its target T1, GPR43. Nature of the test: Calcium mobilization assay without probenecid. It counts as cell-based. To be noted: GPR43 stably expressing cells, triggered with sodium acetate at EC80, read-out: GPR43 assay without probenicid IC50. In outline:
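In GPR43-expressing cells loaded with a Calcium 4 dye, antagonism was tested by a 15 min compound preincubation at 37 °C, then a sodium acetate challenge at EC80, with Ca-flux read on injection. For agonism, Ca-flux was recorded directly on compound injection.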

Regarding `CC1(C(=O)N(CCC(=O)O)Cc2cccc(Cl)c2)CCN1C(=O)c1csc2ccccc12` (stereo not shown) [Compound 169, 3-[[1-(Benzo[b]thiophene-3-carbonyl)-2-methyl-azetidine-2-carbonyl]-(3-chloro-benzyl)-amino]-propionic acid], the IC50 on GPR43 [1] is over 501 nM; at GPR43 [2], 0.01 to 100 nM. Also, the EC50 with human neutrophils was in the range of 101 to 500 nM.
For `CC1(C(=O)N(CCCS(N)(=O)=O)Cc2ccc(Cl)cc2)CCN1C(=O)c1csc2ccccc12` (stereo not shown) [Compound 182, 1-(Benzo[b]thiophene-3-carbonyl)-2-methyl-azetidine-2-carboxylic acid (4-chloro-benzyl)-(3-sulfamoyl-propyl)-amide], the IC50 was 101 to 500 nM at GPR43 [1] and 0.01 to 100 nM on GPR43 [2].
Consider `CC1(C(=O)N(CCCC(=O)O)Cc2ccc(C(F)(F)F)cc2)CCN1C(=O)Cc1csc2ccccc12` (stereo not shown) [Compound 144, 4-[[1-(2-Benzo[b]thiophen-3-yl-acetyl)-2-methyl-azetidine-2-carbonyl]-(4-trifluoromethyl-benzyl)-amino]-butyric acid], for which the IC50 at GPR43 [1] lay within 51 to 100 nM; at GPR43 [2] it was 0.01 to 100 nM. For the same compound, the EC50 with human neutrophils fell in the range of 0.01 to 100 nM.
Take `CCC1(C(=O)N(CCCC(=O)O)Cc2cccc(Cl)c2)CCN1C(=O)c1csc2ccccc12` (stereo not shown) [Compound 195, 4-[[1-(Benzo[b]thiophene-3-carbonyl)-2-ethyl-azetidine-2-carbonyl]-(3-chloro-benzyl)-amino]-butyric acid]: the IC50 fell in the range of 101 to 500 nM at GPR43 [1] and 0.01 to 100 nM at GPR43 [2].
On the same counts, the results for `C[C@@H](c1ccc(Cl)cc1)N(CCCC(=O)O)C(=O)[C@@]1(C)CCN1C(=O)c1csc2ccccc12` [Compound 198, 4-{[(R)-1-(Benzo[b]thiophene-3-carbonyl)-2-methyl-azetidine-2-carbonyl]-[(S)-1-(4-chloro-phenyl)-ethyl]-amino}-butyric acid] are 101 to 500 nM and 0.01 to 100 nM.
As to `CC1(C(=O)N(CCCC(=O)O)Cc2ccc(Cl)cc2)CCN1C(=O)c1csc2ccccc12` (stereo not shown) [Compound 115, 4-[[1-(Benzo[b]thiophene-3-carbonyl)-2-methyl-azetidine-2-carbonyl]-(4-chloro-benzyl)-amino]-butyric acid], the IC50 at GPR43 [1] lay in the range of 101 to 500 nM; on GPR43 [2], 0.01 to 100 nM. In addition, the EC50 in the test with human neutrophils lay in the range of 0.01 to 100 nM.
As for `CC1(C(=O)N(CCCC(=O)O)Cc2ccc3cc[nH]c3c2)CCN1C(=O)Cc1csc2ccccc12` (stereo not shown) [Compound 128, 4-[[1-(2-Benzo[b]thiophen-3-yl-acetyl)-2-methyl-azetidine-2-carbonyl]-(1H-indol-6-ylmethyl)-amino]-butyric acid], the IC50 at GPR43 [1] was 101 to 500 nM; at GPR43 [2], 0.01 to 100 nM. For the same compound, in the test with human neutrophils, the EC50 lay within 0.01 to 100 nM.
On to `CC1(C(=O)N(CCCS(N)(=O)=O)Cc2cccc(Cl)c2)CCN1C(=O)c1csc2ccccc12` (stereo not shown) [Compound 187, 1-(Benzo[b]thiophene-3-carbonyl)-2-methyl-azetidine-2-carboxylic acid (3-chloro-benzyl)-(3-sulfamoyl-propyl)-amide], for which the IC50 on GPR43 [1] lay in the range of 101 to 500 nM; on GPR43 [2] it was 0.01 to 100 nM.
As for `CC1(C(=O)N(CCCC(=O)O)Cc2ccc3cc[nH]c3c2)CCN1C(=O)c1csc2ccccc12` (stereo not shown) [Compound 134, 4-[[1-(Benzo[b]thiophene-3-carbonyl)-2-methyl-azetidine-2-carbonyl]-(1H-indol-6-ylmethyl)-amino]-butyric acid], the IC50 at GPR43 [1] was over 501 nM; at GPR43 [2] it was 0.01 to 100 nM. Further, the EC50 with human neutrophils was in the range of 0.01 to 100 nM.
Turning to `CC1(C(=O)N(CCO)Cc2ccc(Cl)cc2)CCN1C(=O)Cc1csc2ccccc12` (stereo not shown) [Compound 67, 1-(2-Benzo[b]thiophen-3-yl-acetyl)-2-methyl-azetidine-2-carboxylic acid (4-chloro-benzyl)-(2-hydroxy-ethyl)-amide], the IC50 was 0.01 to 100 nM at GPR43 [3], 101 to 500 nM on GPR43 [1] and over 1000 nM on GPR43 [2].
In the case of `CC1(C(=O)N(CCC(=O)O)Cc2ccc(Cl)cc2)CCN1C(=O)c1csc2ccccc12` (stereo not shown) [Compound 155, 3-[[1-(Benzo[b]thiophene-3-carbonyl)-2-methyl-azetidine-2-carbonyl]-(4-chloro-benzyl)-amino]-propionic acid], the figures for the IC50 on GPR43 [1] and on GPR43 [2] were over 501 nM and 0.01 to 100 nM, respectively. The EC50 with human neutrophils was 0.01 to 100 nM.
In the case of `CC1(C(=O)N(CCCC(=O)O)c2ccc(Cl)cc2)CCN1C(=O)c1csc2ccccc12` (stereo not shown) [Compound 194, 4-[[1-(Benzo[b]thiophene-3-carbonyl)-2-methyl-azetidine-2-carbonyl]-(4-chloro-phenyl)-amino]-butyric acid], the values for the IC50 on GPR43 [1] and on GPR43 [2] were over 501 nM and 0.01 to 100 nM, respectively.
